From patent US20250339426A1, “GCN2 MODULATOR FOR TREATING CANCER” (HIBERCELL, INC., priority 2022, published 2025) come the findings set out here.

Experiment [1] has as its system FaDu cells. In words: CTG viability assay, FaDu sgControl and sgGCN2 cells. The conditions noted are these: 72 or 96 hr. The class given is cell-based, human. How it is done: FaDu cells were obtained from ATCC (#HTB-43) and were cultured in Eagle's Minimum Essential Medium, Catalog No. 30-2003 at 37° C. and 5% CO2. FaDu GCN2 CRISPR knockout cells (sgGCN2) or control cells (sgControl) were generated. For viability experiments, cells were plated in 384-well cell culture plates and incubated overnight. Compounds were diluted in 10 concentrations by 3-fold dilution in 384pp-plate using TECAN EVO200 to a final concentration ranging from […]. The plates were incubated for 72 or 96 hr and viability was assessed by adding CellTiter-Glo® 2.0 Assay according to the manufacturer's protocol (Promega, G9243) to each well. The plates were then incubated at RT for 30 min. The luminescent signals were read by Envision (PerkinElmer) plate reader and analyzed by Prism

For experiment [2], the system named is ATF4, ASNS in FaDu cells. In words: Jess protein analysis, FaDu cells. The class given is cell-based, human. To be noted: 0.01 and 0.1 μM, 72 hr, sgControl vs sgGCN2. How it is done: Cell lysates were obtained from FaDu sgControl or sgGCN2 cells treated with HC-7366 (0, 0.01, 0.1 and 1 μM) for 72 hr. Ice cold 1x radioimmunoprecipitation assay (RIPA) lysis buffer supplemented with protease and phosphatase inhibitors was added to the cell pellets, on ice. After 30 min on ice the cell lysates were centrifuged at 4° C., 12,000 rpm for 15 minutes and the supernatant was collected. Protein concentration was determined using BCA kit. The cell lysates were mixed with 5×SDS loading buffer and denatured at 95° C. for 5 minutes. 1 μg lysate was run on Jess capillary and results were analyzed by compass simple western software. The following primary antibodies were used: p-GCN2 T899 (Abcam #ab75836), GCN2 (Cell Signaling #3302), ATF4 (Cell Signaling #11815) and ASNS (Proteintech #14681). Anti-rabbit secondary antibody was from ProteinSimple #042-206.

Experiment [3] relates to MOLM-16 cells. In words: Seahorse XF Mito stress test (OCR) and Glycolysis Stress Test (ECAR). The class given is cell-based, human. The conditions noted are these: 0.001, 0.1 or 10 μM, 16 hrs; strongest effect at 0.1 μM. As to the method:
MOLM-16 cells were treated with 0.001, 0.1 or 10 μM HC-7366 for 16 hrs and the Seahorse XF Glycolysis Stress Test (ECAR; extracellular acidification rate) and Seahorse XF Mito stress test (OCR; oxygen consumption rate) (Agilent technologies, CA, USA) were performed.

Experiment [4] concerns FaDu tumors and plasma. Description: Metabolomic analysis of tumor and plasma, FaDu tumor bearing mice. The class given is in vivo. As to the method:
FaDu tumor bearing mice were treated with vehicle or HC-7366 (1, 3, or 30 mg/kg) twice a day orally for three days, and on the morning of Day 4 an AM dose was administered and tumors and plasma were collected 1 hr after dose. Tumor and plasma samples were extracted and split into equal parts for analysis on LC/MS/MS and Polar LC platforms. Proprietary software was used to match ions to an in-house library of standards for metabolite identification and for metabolite quantitation by peak area integration (Metabolon). Proteomic analysis on tumors was performed at MS Bioworks. The equivalent of 3 μg of peptide from each pooled fraction was analyzed by nano LC-MS/MS with a Waters M-Class HPLC system interfaced to a ThermoFisher Fusion Lumos mass spectrometer. Histograms show metabolite levels of treatment groups normalized to vehicle control (FIGS. 115-122).

In experiment [5] the test system is HIF1α. Description: IHC of patient tumor biopsies, Phase 1a/b study. The class given is in vivo, human. The conditions noted are these: colorectal and head and neck cancer patients, 10 mg and 20 mg QD, cycle 3 vs screening. As to the method:
A first-in-human, multicenter, open-label, Phase 1a/b dose-escalation and dose-expansion study to establish the maximum tolerated dose (MTD), recommended phase II dose (RP2D), and evaluate the safety and tolerability of once daily (QD) oral dosing of HC-7366 potassium salt monohydrate in a dose-escalating fashion in subjects with advanced solid tumors was conducted. Up to 36 subjects were enrolled into the Phase 1a dose-escalation part of the study. Approximately 50% of all subjects enrolled in this study were subjects with squamous cell carcinoma of the head and neck (SCCHN), colorectal cancer (CRC), non-small cell lung cancer (NSCLC), and transitional cell carcinoma of the bladder (TCC). […] The study was conducted in the United States at approximately 3 to 5 sites. This Phase 1a/b study followed a traditional 3+3 design. The starting dose level was 10 mg QD, escalating to 20, 40, 75, 125, and 150 mg QD as safety allowed. All doses were administered in the fasting state with water at least 1 hour before food or at least 2 hours after food. […]
Tumor biopsies collected from colorectal cancer and head and neck cancer study patients at the time of screening and at cycle 3 were analyzed for HIF1α expression by IHC. […]

Consider `CNC(=O)c1ncn2cc(-c3c(F)ccc(NS(=O)(=O)c4cc(Cl)cnc4OC)c3F)ncc12` [HC-7366, 6-(3-((5-chloro-2-methoxypyridine)-3-sulfonamido)-2,6-difluorophenyl)-N-methylimidazo[1,5-a]pyrazine-1-carboxamide], for which the viability entry in experiment [1] (FaDu control cells) is “potently reduced viability”. In experiment [1] (GCN2 CRISPR knockout cells), the viability response entry is listed as “reversed”. For the same compound, the “levels of ATF4 and ASNS” value in experiment [2] was “GCN2-dependent increase”. Further, in experiment [3], the “OCR (oxygen consumption rate)” value was “significantly reduced” and the “glycolysis (ECAR)” value is on record as “significantly reduced”. Further, the urea levels entry in experiment [4] (plasma) was “significantly increased”. Also, in experiment [4] (tumor), the oxidized glutathione levels result is on record as “significantly reduced” and the reduced glutathione levels result is recorded as “did not alter”. In experiment [4] (tumor and plasma), the “gamma glutamyl amino acid levels” value is given as “significantly increased”. Also, in experiment [4] (tumor and plasma, 1, 3, or 30 mg/kg twice a day, Day 4), the “levels of several amino acids” value is on record as “significantly elevated”. For the same compound, in experiment [4] (tumors), the “levels of arginine, arginosuccinate and citrulline” value was “significantly increased”; the pyrimidine synthesis metabolites result is given as “significantly reduced”. Also, the “HIF1α expression in tumor biopsies” value in experiment [5] is listed as “Profound inhibition”.
